Patent US20070054841A1, “Method of treatment of systemic injury secondary to burns” (The University of Queensland, priority 2003, published 2007)
“Also recorded” adds a separate entry of the source.

What was measured:
[1] = in vivo
[2] = Interaction with silver coated Acticoat dressing: silver ion leaching and surface by scanning electron microscopy; type: physicochemical
Method: (§1) Uniformly sized segments of the Acticoat dressing (10 mm diameter) were incubated in 7 ml PMX53 solution (1.0 mM in sterile water) or sterile water alone at 37° C. for periods of up to 7 days. The segments were then removed and examined using scanning electron microscopy to determine if the silver coating was affected.
A quantitative assessment of the effect of PMX53 on silver ion leaching was performed by determining the concentration of silver ions in each solution after the incubation described above for 1, 3, 5 and 7 days. Silver ion determination was performed using a Spectroflame model P ICPAES instrument.

[3] = PMX53 concentration remaining after incubation with Acticoat dressing (HPLC); type: physicochemical; settings: throughout the experiment (up to 7 days, 37° C.)
Method: as §1
An analysis of the concentration of PMX53 remaining in the incubation solutions was performed by high performance liquid chromatography to ascertain if the concentration of PMX53 remained constant throughout the incubation period. PMX53 solution was incubated at 37° C. without a dressing to act as a control.

[4] = test system: rats with second degree burns; type: in vivo, Female Wistar rats; settings: topical 400 μg/spot immediately after burn; 6 hours after burn
Method: The inhibitory effect of topically applied PMX53 on neutrophil infiltration following a burn was examined after a 6 hour period. In order to verify any effect of PMX53 on the immune system, immunoglobulin […] (IgG) levels were examined. IgM levels can be examined using similar methods. Female Wistar rats of body weight about 250 grams were used in this study. A total of nine rats were used in the experiments, divided into 3 groups of 3 animals each: Both sides of the anaesthetized rat body was shaved. […] Skin samples were collected for histopathology. The change in circulating IgG levels following the administration of PMX53 are illustrated in FIG. 7. IgG levels in plasma were measured using an ELISA assay. IgM levels may also may be determined using conventional ELISA techniques. There was no suppression of IgG over the 6 hr period after burns to 15% of the rat skin surface area (n=3). […] The 6 hr period may be too short for the systemic reaction to the burns to be detectable.

[5] = test system: rats with full thickness skin burn; assay: Rat thermal skin burn (30%): bronchoalveolar lavage cell number and lung myeloperoxidase; type: in vivo, Female Wistar rats; settings: 10 mg/kg SC pretreatment, 4 hours after burn injury, versus untreated burned animals
Method: A separate series of experiments was performed in the same way to determine myeloperoxidase (MPO) levels in the lung. In this experiment the groups were as follows: Immediately after the 4 hr monitoring period following the burn the lungs were flushed with 10 ml of saline via the pulmonary artery. Bronchoalveolar lavage (BAL) fluid was collected by an irrigation of 1 ml of saline at 37° C. into the lung once through the trachea and the total number of cells present in the lavage fluid was determined. Approximately 50% of the left lung was weighed, then homogenized in 1 ml solution of 0.05% sodium azide in 0.1M PBS (pH 6.4), and then sonicated and centrifuged. The MPO levels in the supernatants of lungs were determined using a tissue MPO assay, and the results were calculated as absorbance/tissue weight (g). Samples of affected skin, lung, liver and kidney were collected for histopathology.

[6] = test system: rats with full thickness skin burn; assay: Rat thermal skin burn (30% of skin area): Evans Blue leakage and macroscopic appearance of lung; type: in vivo, Female Wistar rats
Method: Female Wistar rats of body weight 250-300 grams were used in this study. The rats were divided into three groups: PMX53 treatment involved a subcutaneous injection of PMX53 in distilled water at a dose of 10 mg/kg 30 minutes before the burn. With the rats under deep anaesthesia, a closely-clipped area of skin on the back equivalent to 30% of total skin area was exposed to water at a temperature of 75° C. for 30 seconds. […] To prevent rapid death from the burn, rats were immediately treated with an intraperitoneal infusion of 8-10 ml normal saline. At the same time Evans Blue (EB) at a concentration of 20 mg/kg was injected via the femoral vein. The rats were then kept on a heating pad to maintain normal body temperature, and monitored for 4 hours. Anaesthetic was topped up as required. At the end of the experiment, 1-2 ml of blood was taken and the serum/plasma stored at −20° C., for subsequent assay of serum TNF-α levels. The leakage of EB/albumin from the blood vessels into the subcutaneous tissue was estimated by examining photographs of skin samples.

[7] = test system: T-cell dependent antigen responses; settings: rat, in vivo, po, 100 mg/kg/day
granulocytes = settings: cynomolgus monkey, in vivo, po, 100 mg/kg/day

With `CC(=O)N[C@@H](Cc1ccccc1)C(=O)N[C@H]1CCCNC(=O)[C@H](CCCNC(=N)N)NC(=O)[C@H](Cc2c[nH]c3ccccc23)NC(=O)[C@@H](CC2CCCCC2)NC(=O)[C@@H]2CCCN2C1=O` [PMX53, AcPhe[Orn-Pro-D-Cyclohexylalanine-Trp-Arg]] the “penetration through normal rat skin” value [1] was 0.16 %/cm^2, the “systemic level of the drug after topical administration compared with other routes” value ([1]; rat) was “lower systemic level” and the “changes at the surface of Acticoat dressing segments (scanning electron microscopy)” value ([2]; 7 days incubation with PMX53, magnification of 2000) was “no apparent changes”. For the same compound, the “factor of increase in leaching of silver ions from Acticoat dressing” value ([2]; PMX53 1 mM, after 1 day of incubation at 37° C.) was 2.5, the “concentration of PMX53 incubated with Acticoat dressing compared to control PMX53 solution” value [3] was “did not change” and the “neutrophil recruitment in burned skin (histology)” value [4] was “less neutrophil recruitment”. For the same compound, the “structural damage of burned skin (histology)” value [4] was “same structural damage as burned skin”, the “total number of cells in bronchoalveolar lavage fluid” value [5] was “cell numbers approaching those found in the sham-operated, unburned animals” and the “total number of cells in bronchoalveolar lavage fluid” value ([5]; listed as PMX35) was “dramatically less”. The “degree of EB infiltration in the subcutaneous tissues” value ([6]; 10 mg/kg SC 30 minutes before burn, 4 hours after burning, drug-treated versus untreated burned rats) was “no appreciable difference”, the “leakage of Evans Blue (plasma) into burnt skin, blue staining and thickening” value ([6]; 10 mg/kg SC 30 minutes before burn, compared to burn-only group) was “less blue staining and less thickening; also recorded: markedly less plasma leakage into the skin” and the “macroscopic appearance of the lung (EB staining, consolidation)” value ([6]; 10 mg/kg SC pretreatment, 4 hours after burn) was “colour and texture similar to those of the normal lungs; also recorded: appear normal”. For the same compound, the “T-cell dependent antigen responses” value [7] was “did not attenuate or increase” and the “phagocytosis or oxidative burst functions of granulocytes” value (granulocytes) was “did not detectably impair”.
